Assays:
[1] = Cellular viability of LC-1/SQSF cells after incubation with PI3K inhibitors; details: human, LC-1/SQSF cells stably expressing hNQO1-ARE-luc
Protocol: (§5) To test this, LC-1/SQSF cells were generated that stably express hNQO1-ARE-luc, containing cis-acting antioxidant response regulatory elements in the 5′-flanking region of NAD(P)H:quinone oxidoreductase (NQO1) (19), a gene induced by NRF2. Luciferase activity was measured in LC-1/SQSF, hNQO1-ARE-luc cells after incubation with LY 294002, NVP-BKM120, or TGX-221. […] Cellular viability was measured after incubation with LY 294002, NVP-BKM120, or TGX-221.

SQ-1 cells = assay: Clonogenic survival, SQ-1 cells; format: cell-based, human; details: SQ-1 (NFE2L2 and KEAP1 wild type), drug 24 hours before radiation
Protocol: (§1) Lung SqCC cell lines from the Cancer Cell Line Encyclopedia (CCLE) were authenticated per CCLE protocol (14) and grown in recommended media supplemented with 10% fetal bovine serum (Benchmark, Calif.) and 100 U/mL Penicillin, 100 μg/mL of Streptomycin, and 292 μg/mL L-Glutamine (Corning, N.Y.). All cultures were maintained at 37° C. in a humidified 5% CO2 atmosphere and tested to ensure absence of Mycoplasma. Plates were treated with 0 Gy (no radiation) or with 1-10 Gy of γ-radiation delivered at 0.91 Gy/min with a ^137Cs source using a GammaCell 40 Exactor (Best Theratronics; Ontario, Canada).
(§2) Cells were plated at appropriate dilutions, irradiated, and incubated for 10-14 days for colony formation. For chemical radiosensitization measurements, drug was added 24 hours prior to irradiation. Colonies were fixed in a solution of acetic acid and methanol 1:3 (v/v) and stained with 0.5% (w/v) crystal violet as previously described (15). A colony was defined to consist of 50 cells or greater. Colonies were counted digitally using ImageJ software as described (16). Integration of survival as a function of dose, or area under the curve, was calculated using Prism, GraphPad Software (La Jolla, Calif.).

RERF-LC-AI cells = assay: Clonogenic survival, RERF-LC-AI cells; format: cell-based, human
Protocol: as §1, §2

LC-1/SQSF cells [2] = assay: Cellular viability of LC-1/SQSF cells after incubation with PI3K inhibitors; details: LC-1/SQSF, 48 hours
Protocol: as §5

HCC15 cells = assay: Clonogenic survival, HCC15 cells; format: cell-based, human; details: HCC15 (KEAP1 mutant), drug 24 hours before radiation
Protocol: as §1, §2

A549 cells = assay: Clonogenic survival, A549 cells; format: cell-based, human; details: A549, drug 24 hours before radiation
Protocol: as §1, §2

LC-1/SQSF cells [3] = assay: Clonogenic survival, LC-1/SQSF cells; format: cell-based, human
Protocol: as §1, §2

NRF2 protein [4] = assay: Immunoblot of NRF2 protein level in LC-1/SQSF cells; format: cell-based, human; details: for expression of endogenous mutant NRF2 compared with control shNTC: Doxycycline induction 24 hours
Protocol: (§3) Anti-NRF2 antibody (ab31163) was from Abcam (Cambridge, Mass.) (17). NVP-BKM120 and TGX-221 was from Selleck (Houston, Tex.). LY 294002 was from Cell Signaling Technology (Beverly, Mass.).
(§4) Construction of the retroviral expression vector of short hairpin RNA (shRNA) was carried out as described (18). The shRNA-targeted sequences were as follows: NRF2-1 shRNA, […] (SEQ ID NO: 1); NRF2-2 shRNA, […] (SEQ ID NO: 2). The control vector contains nontargeting shRNA sequence. The entry vectors were recombined with pLKO-Tet-ON-puro by LR reactions (Invitrogen, Carlsbad, Calif.), in accordance with the manufacturer's instructions. After infection (multiplicity of infection >1), cells were selected and maintained in the presence of 1 μg/ml puromycin.

NRF2 activity = assay: hNQO1-ARE-luc luciferase reporter assay in LC-1/SQSF cells; format: cell-based, human; details: 24 hours
Protocol: LC-1/SQSF, hNQO1-ARE-luc cells were produced as follows. hQR41-ARE sequence (19) and firefly luciferase-PEST sequence (Promega, WI) was cloned into plenti6/BLOCK-iT-DEST lentivirus backbone (Invitrogen, NY) at the restriction sites of NcoI and Hind III. The engineered region was sequence verified and matched 100% of the expected sequences. The plasmid was stably infected to the LC-1/SQSF cell line, selected and maintained in 5 μg/ml Blasticidin in the recommended media.

LC-1/SQSF cells [5] = test system: LC-1/SQSF cells
Protocol: as §5

NRF2 protein [6] = assay: Immunoblot of NRF2 protein level in RERF-LC-AI cells; format: cell-based, human; details: for NRF2 protein level / expression of endogenous NRF2 compared with control shNTC: RERF-LC-AI, Doxycycline induction 24 hours
Protocol: as §3, §4

For O=c1cc(N2CCOCC2)oc2c(-c3ccccc3)cccc12 [LY 294002], the viability at 24 h [1] was over 90%.

In the case of Nc1cc(C(F)(F)F)c(-c2cc(N3CCOCC3)nc(N3CCOCC3)n2)cn1 [NVP-BKM120, 5-(2,6-dimorpholinopyrimidin-4-yl)-4-(trifluoromethyl)pyridin-2-amine], the “synergy between drug and radiation, clonogenic survival” value (SQ-1 cells) is reported as “significantly less synergy”, the “synergy between drug and radiation, clonogenic survival” value (RERF-LC-AI cells; RERF-LC-AI (NFE2L2 and KEAP1 wild type), drug 24 hours before radiation) is reported as “significantly less synergy” and the “decrement in cellular viability” value (LC-1/SQSF cells [2]) is reported as “mirrored the effect on NRF2 activity”. The viability at 24 h [1] was over 90%, the “clonogenic survival with drug and radiation compared to control (0 Gy)” value (shortened to “clonogenic survival … compared to control (0 Gy)”) (HCC15 cells) was “synergistic decrement in clonogenic survival” and the “clonogenic survival … compared to control (0 Gy)” value (A549 cells) was “synergistic decrement in clonogenic survival”. For the same compound, the “clonogenic survival … compared to control (0 Gy)” value (LC-1/SQSF cells [3]; LC-1/SQSF (NFE2L2 mutant), drug 24 hours before radiation) was “synergistic decrement in clonogenic survival”, the “decrement in NRF2 protein level” value (NRF2 protein [4]; 24 hours) was “significant decrement in NRF2 protein level” and the “decrement in NRF2 activity (luciferase activity)” value (NRF2 activity) was “significant decrement in NRF2 activity”.

In the case of Cc1cc(C(C)Nc2ccccc2)c2nc(N3CCOCC3)cc(=O)n2c1 (stereo not drawn) [TGX-221], the “decrement in cellular viability” value (LC-1/SQSF cells [2]) is reported as “mirrored the effect on NRF2 activity” and the viability (LC-1/SQSF cells [5]) is reported as over 90%.

With CC(C)(C)c1cc(O)ccc1O [tBHQ, tert-Butylhydroquinone] the “NRF2 stabilization (NRF2 protein level)” value (NRF2 protein [6]; RERF-LC-AI cells, -/+ tBHQ) was “NRF2 stabilization”.

With “shNRF2-1: lentiviral-inducible NRF2-targeted shRNA, target sequence AGAGCAAGATTTAGATCATTT (SEQ ID NO: 1) (the letters are possibly those of the target site)” the “NRF2 protein level / expression of endogenous NRF2 compared with control shNTC” value (NRF2 protein [6]) was “minimal affect”, the “sensitivity to radiation versus control shNTC cells, clonogenic survival” value (LC-1/SQSF cells [3]; LC-1/SQSF, 2, 4, 6 Gy after Doxycycline 24 hours) was “more sensitive to radiation” and the “expression of endogenous mutant NRF2 compared with control shNTC” value (NRF2 protein [4]) was “significantly reduced”.

In the case of “shNRF2-2: lentiviral-inducible NRF2-targeted shRNA, target sequence GCTCCTACTGTGATGTGAAAT (SEQ ID NO: 2) (the letters are possibly those of the target site)”, the “radiation sensitivity, clonogenic survival” value (RERF-LC-AI cells; RERF-LC-AI, 2, 4, 6 Gy after Doxycycline 24 hours) is reported as “did not result in any observable decrease”, the clonogenic capacity (RERF-LC-AI cells; RERF-LC-AI, no radiation) is reported as “did not result in any observable decrease” and the “NRF2 protein level / expression of endogenous NRF2 compared with control shNTC” value (NRF2 protein [6]) is reported as “significantly reduced”. The “clonogenic capacity after lentiviral-induction” value (LC-1/SQSF cells [3]; LC-1/SQSF, no radiation) was “significantly diminished clonogenic capacity” and the “expression of endogenous mutant NRF2 compared with control shNTC” value (NRF2 protein [4]) was “significantly reduced”.
